From patent US20030207933A1, “Compositions and methods for increasing the sensitivity of apoptosis-resistant tumor cells to inducers of apoptosis” (priority 2002, published 2003)

Columns and labels:
HL-60 Bcl-2 cells = test: DNA fragmentation (release of 3H-labeled DNA fragments) in Bcl-2-transfected HL-60 cells; type: cell-based, human
[1] = Body weight of RIF-1 tumor bearing mice; details: Dox 5 mg/kg alone; FIG. 15
Description: Groups of five mice each were inoculated s.c. with RIF-1 cells. The tumors were allowed to grow for 12 days to a size of 0.5 cm diameter, which was designated day 0. […] The mice were weighed and the tumor size measured every day.

RIF-1 fibrosarcoma = RIF-1 fibrosarcoma tumor growth in vivo; design: species or system mice
Description: The present study tested in the ability of W-188 to synergize with Dox and inhibit tumor growth in vivo. The RIF-1 fibrosarcoma model was used because this model has been well-characterized, and naturally expresses high Bcl-2 levels and has a consistent growth pattern (Nahabedian, M. Y., et al., J. Natl. Can. Inst., 1988, 80:739; Chang, M-J., et al., Cancer Res., 1994, 54:5380; Srivastana, M., et al., J. Biol. Chem., 2001, 276:15481).
Groups of five mice each were inoculated s.c. with RIF-1 cells. The tumors were allowed to grow for 12 days to a size of 0.5 cm diameter, which was designated day 0. The mice were then given five i.p. injections every other day with vehicle, Dox 2.5 mg/kg, Dox 5.0 mg/kg, W-188 100 mg/kg, and Dox 5.0 mg/kg+W-188 100 mg/kg. The mice were weighed and the tumor size measured every day.
The protocol was similar to that described for the W-188 experiment in Example 8, except that in this study, mice with established tumors received only three injections of W-143 or Dox every other day starting on day 0.

Bcl-2 = test: Western blot for expression of Bcl-2 in RIF-1 tumors in vivo; design: species or system mice; details: Dox alone; day 15; FIG. 16
Description: Cells were dissociated, lysed, and the nuclei and mitochondria separated by differential centrifugation. RIF-1 cells cultured in vitro were processed in a similar manner as a positive control. Equal amounts of protein extracts were separated by electrophoresis and analyzed by Western blot for expression of Bcl-2. […] The pattern of Bcl-2 expression was similar in the nuclei, although the overall levels were lower than in the mitochondria. […] Most likely, this discrepancy can be explained by the fact that this line is transfected with exogenous Bcl-2, whereas the RIF-1 line expresses endogenous Bcl-2 under control of its natural promoter. […] Alternatively, W-188 and W-143 may differ in their mechanisms of action, although this conclusion seems less likely in view of the structural similarity of these two compounds.

mice = test: Multiple dose toxicity with histopathological analysis; type: in vivo; details: doxorubicin 5 mg/kg alone
Description: In the present study, more extensive toxicity studies with histopathological analysis of seven different tissues was performed on W-143 at a commercial lab.
Groups of six mice (3 male and 3 females) each were given three i.p. injections at two day intervals of vehicle, doxorubicin 5 mg/kg alone, W-143 200 mg/kg alone or both together. On day 5 and day 15 after the last injection, mice were sacrificed, necropsied, and tissue samples processed. Tissues examined include bone marrow, liver, heart, small and large intestine, 1 sex organ, and kidney.

AP24 = test: Etoposide-induced activation of AP24 (AAPVase) in HL-60 and PW leukemia lines; type: cell-based, human; details: etoposide 50 μM, 3 h
[2] = Cytotoxicity to normal venous endothelial cells (MTT dye reduction assay); type: cell-based, human; details: human, normal venous endothelial cells, etoposide 100 μM, W-188 0 μg/mL; 6 h
HL-60 neo cells = test: DNA fragmentation (release of 3H-labeled DNA fragments) in vector control HL-60 neo cells; type: cell-based, human
Description: The present study evaluated the ability of W-188 to sensitize Bcl-2-overexpressing cells to induce apoptosis. The human myelogenous leukemia, HL-60, and the human B cell leukemia, PW, normally express very low levels of Bcl-2. As a model system, W-188 and various analogs and derivatives were tested in normal HL-60 and PW cells and in Bcl-2-transfected HL-60 and PW cells that overexpress high levels of Bcl-2 (see Gilbert et al., J. Cell Physiol., 1996, 171:299).
As depicted in FIG. 4, HL-60 cells (Panel A) and PW cells (Panel B) cells were exposed to various apoptosis inducers: TNF at 5 ng/ml; etoposide at 20 μM; and UV at 0.08 J/cm^2. The release of 3H-labeled DNA fragments was measured after 5 h. Normal HL-60 and PW cells were equally sensitive to apoptosis inducers as compared with cells that were transfected with vector encoding neomycin resistance (HL-60 neo and PW neo) only. […] W-188 alone was nontoxic. The addition of W-188 to the neo cell lines caused a 1.5-2 fold increase in DNA fragmentation in response to the various apoptosis inducers.

overexpression of Bcl-2 = test: Comparison with compounds reported to counteract Bcl-2; type: cell-based; details: data not shown
Description: W-188 was then compared to other compounds previously reported to counteract Bcl-2 (Marchetti, P., et al., J. Immunol., 1996, 157:4830; Hirsch, T., et al., Exp. Cell Res., 1998, 241:426).

[3] = Exp 1, etoposide 5 μM + compound 10 μM
[4] = Exp 4, etoposide 5 μM + compound 10 μM
[5] = Exp 3, etoposide 5 μM + compound 20 μM
[6] = Exp 2, etoposide 10 μM + compound 10 μM

## Cl.Cl.Cl.Cl.O.O=C(O)CN1CCCN(CC(=O)O)CCN(CC(=O)O)CCCN(CC(=O)O)CC1 [1,4,8,11-tetraazacyclotetra-decane-1,4,8,11-tetraacetic acid tetrahydrochioride hydrate]
HL-60 Bcl-2 cells; [3]
  % DNA Fragmentation: 0%

## Cc1nc(-c2nc(C)c(C)[nH]2)[nH]c1C [2,2′-bis(4,5-dimethyl-imidazole)]
HL-60 Bcl-2 cells; [3]
  % DNA Fragmentation: 2%

## CC(C)(C)c1ccc2c(c1)-c1nc3nc(nc4[nH]c(nc5[nH]c(nc-2n1)c1cc(C(C)(C)C)ccc51)c1cc(C(C)(C)C)ccc41)-c1ccc(C(C)(C)C)cc1-3 [2,9,16,23-tetra-tert-butyl-29H, 31H-phthalocyanine]
HL-60 Bcl-2 cells; [4]
  % DNA Fragmentation: 0%

## N#Cc1nc[nH]c1C#N [4,5-dicyanoimidazole]
HL-60 Bcl-2 cells; [3]
  % DNA Fragmentation: 10%

## CC1(C)CC(C#N)CC(C)(C)N1[O] [4-cyano tempo]
HL-60 Bcl-2 cells; [3]
  % DNA Fragmentation: 2%

## Cc1ccc(-c2c3nc(c(-c4ccc(C)cc4)c4ccc([nH]4)c(-c4ccc(C)cc4)c4nc(c(-c5ccc(C)cc5)c5ccc2[nH]5)C=C4)C=C3)cc1 [5,10,15,20-tetra-p-tolyl-21H,23H-porphine]
HL-60 Bcl-2 cells; [4]
  % DNA Fragmentation: 15%

## COc1cccc2c1C(=O)c1c(O)c3c(c(O)c1C2=O)C[C@@](O)(C(=O)CO)C[C@@H]3O[C@H]1C[C@H](N)[C@H](O)[C@H](C)O1 [Dox, doxorubicin, reference compound]
[1]
  Body weight: toxic causing a significant weight loss on day 7-8
RIF-1 fibrosarcoma; Dox 5 mg/kg alone, three injections every other day, FIG. 14
  Effect on tumor growth: only a small effect on tumor growth
RIF-1 fibrosarcoma; Dox alone at 2.5 or 5 mg/kg, five i.p. injections every other day, FIG. 11
  Effect on tumor growth: very little effect on tumor growth
Bcl-2
  Bcl-2 expression in tumor cell mitochondria: expressed high levels of Bcl-2
mice; three i.p. injections, day 5
  Histopathology: minor vacuolar changes in the liver
mice; day 15
  Histopathology: all tissues were normal

## COc1cc([C@@H]2c3cc4c(cc3[C@@H](O[C@@H]3O[C@@H]5CO[C@@H](C)O[C@H]5[C@H](O)[C@H]3O)[C@H]3COC(=O)[C@H]23)OCO4)cc(OC)c1O [Etoposide]
AP24; HL-60 Bcl-2
  AP24 Activity (AAPVase, nmol/mg/hr): 14 nmol/mg/h
AP24; HL-60 neo
  AP24 Activity (AAPVase, nmol/mg/hr): 100 nmol/mg/h
AP24; PW Bcl-2
  AP24 Activity (AAPVase, nmol/mg/hr): 12 nmol/mg/h
AP24; PW neo
  AP24 Activity (AAPVase, nmol/mg/hr): 88 nmol/mg/h
[2]
  cytotoxicity at 6 h, 100 μM: 22 ± 3.4%
HL-60 Bcl-2 cells; Exp 1, etoposide 5 μM alone
  % DNA Fragmentation: 0%
HL-60 Bcl-2 cells; Exp 2, etoposide 10 μM alone
  % DNA Fragmentation: 0%
HL-60 Bcl-2 cells; Exp 3, etoposide 5 μM alone
  % DNA Fragmentation: 24%
HL-60 Bcl-2 cells; Exp 4, etoposide 5 μM alone
  % DNA Fragmentation: 3%
HL-60 Bcl-2 cells; Exp 5, etoposide 10 μM alone
  % DNA Fragmentation: 0%
HL-60 neo cells; Exp 1, etoposide 5 μM alone
  % DNA Fragmentation: 72%
HL-60 neo cells; Exp 2, etoposide 10 μM alone
  % DNA Fragmentation: 57%
HL-60 neo cells; Exp 3, etoposide 5 μM alone
  % DNA Fragmentation: 97%
HL-60 neo cells; Exp 4, etoposide 5 μM alone
  % DNA Fragmentation: 63%
HL-60 neo cells; Exp 5, etoposide 10 μM alone
  % DNA Fragmentation: 57%

## C=CC1=C(C)c2cc3[n-]c(cc4[n-]c(cc5nc(cc1n2)C(C)=C5C=C)c(C)c4CCC(=O)O)c(CCC(=O)O)c3C.[Fe+2] [Fe protoporphyrin IX]
HL-60 Bcl-2 cells; [5]
  % DNA Fragmentation: 17%

## CCC(C)N(C)C(=O)c1cc2ccccc2c(-c2ccccc2Cl)n1 (stereo not drawn) [PK11195]
Overexpression of Bcl-2; at 20 μM (the highest non-toxic concentration)
  Reversal of the effect of overexpression of Bcl-2: completely ineffective

## C=CC1=C(C)c2cc3[n-]c(cc4[n-]c(cc5nc(cc1n2)C(C)=C5C=C)c(C)c4CCC(=O)O)c(CCC(=O)O)c3C.[Sn+4] [Sn protoporphyrin IX]
HL-60 Bcl-2 cells; [5]
  % DNA Fragmentation: 5%

## CCC1=C(C)C(=O)N/C1=C\c1[nH]c(C)c(CC)c1C [W-145]
HL-60 Bcl-2 cells; Exp 5, etoposide 10 μM + compound 10 μM
  % DNA Fragmentation: 28%

## C=CC1=C(C)c2cc3[n-]c(cc4[n-]c(cc5nc(cc1n2)C(C)=C5C=C)c(C)c4CCC(=O)O)c(CCC(=O)O)c3C.[Zn+2] [Zn protoporphyrin IX]
HL-60 Bcl-2 cells; [5]
  % DNA Fragmentation: 19%

## C=CC1=C(C)/C(=C/c2[nH]c(Cc3[nH]c(/C=C4\NC(=O)C(C)=C4C=C)c(C)c3CCC(=O)O)c(CCC(=O)O)c2C)NC1=O [bilirubin]
HL-60 Bcl-2 cells; [6]
  % DNA Fragmentation: 17%

## C=CC1=C(C)/C(=C/C2=NC(=C\c3[nH]c(/C=C4\NC(=O)C(C)=C4C=C)c(C)c3CCC(=O)O)/C(CCC(=O)O)=C2C)NC1=O [biliverdin]
HL-60 Bcl-2 cells; [5]
  % DNA Fragmentation: 20%

## [Co+2].c1ccc2c(c1)-c1nc-2nc2[n-]c(nc3nc(nc4[n-]c(n1)c1ccccc41)-c1ccccc1-3)c1ccccc21 [cobalt (II) pthalocyanine]
HL-60 Bcl-2 cells; [3]
  % DNA Fragmentation: 9%

## CC1=C(CCC(=O)O)c2cc3nc(cc4[nH]c(cc5[nH]c(cc1n2)c(C)c5CCC(=O)O)c(CCC(=O)O)c4C)C(CCC(=O)O)=C3C [coproporphyrin]
HL-60 Bcl-2 cells; [6]
  % DNA Fragmentation: 15%

## Br.Br.CCC1=C(C)c2cc3[nH]c(cc4[nH]c(cc5nc(cc1n2)C(C)=C5CC)c(C)c4CC)c(C)c3CC [etioporphyrin I dihydrobromide]
HL-60 Bcl-2 cells; [4]
  % DNA Fragmentation: 25%

## C=CC1=C(C)c2cc3[n-]c(cc4[n-]c(cc5nc(cc1n2)C(C)=C5C=C)c(C)c4CCC(=O)O)c(CCC(=O)O)c3C.O.[Fe+2] [hematin]
HL-60 Bcl-2 cells; [3]
  % DNA Fragmentation: 2%

## C1=Cc2cc3ccc(cc4ccc(cc5nc(cc1n2)C=C5)[nH]4)[nH]3 [porphyin]
HL-60 Bcl-2 cells; [6]
  % DNA Fragmentation: 10%

## C=CC1=C(C)c2cc3[nH]c(cc4nc(cc5[nH]c(cc1n2)c(C)c5CCC(=O)O)C(CCC(=O)O)=C4C)c(C)c3C=C [protoporphyrin IX]
HL-60 Bcl-2 cells; [6]
  % DNA Fragmentation: 3%

## CC(=O)O[C@H]1C(=O)[C@@]2(C)[C@H]([C@H](OC(=O)c3ccccc3)[C@]3(O)C[C@H](OC(=O)[C@H](O)[C@@H](NC(=O)c4ccccc4)c4ccccc4)C(C)=C1C3(C)C)[C@]1(OC(C)=O)CO[C@@H]1C[C@@H]2O [taxol]
Overexpression of Bcl-2
  Reversal of the effect of overexpression of Bcl-2, compared with W-188: inferior to W-188

## deuterporphyrin IX dimethyl ester
HL-60 Bcl-2 cells; [3]
  % DNA Fragmentation: 8%
